These results are taken from patent US12544348B2, “Methods for treating APOE4/4-associated disorders” (The Regents of the University of California, priority 2018, dated 2026).

For the assay, the system named is apoE4-KI mice. Briefly: Morris water maze (MWM) spatial learning and memory, aged apoE4-KI mice. The format is in vivo. The source says:
Mice. All protocols and procedures followed the guidelines of the Laboratory Animal Resource Center at the University of California, San Francisco (UCSF). All mice were housed under identical conditions from birth through death (12-hour light/dark cycle, housed 5/cage, PicoLab Rodent Diet 20). All mouse lines were maintained on a C57Bl/6J background. ApoE3-KI and apoE4-KI homozygous mouse lines (Taconic)^30,31 were born and aged under normal conditions at the Gladstone Institutes/UCSF animal facility. Female apoE-KI mice were used because of their susceptibility to AD-related neuronal and behavioral deficits. The ages of the mice are indicated in the behavioral testing section of the online methods. Bumetanide treatment. Bumetanide was prepared at 220 μM in 2% DMSO in 0.9% sterile saline, adjusted to pH 8.5 with NaOH for solubility, and given by i.p. injection daily starting 6 weeks before and continuing throughout behavioral assessment. Body weight was measured weekly during bumetanide treatment; injection volume was calculated to achieve a dose of 0.02 (low) or 0.2 (high) mg bumetanide/kg body mass (e.g., 50-ul daily injection for a 20-g mouse). Control mice were injected with a matched volume of 2% DMSO in 0.9% sterile saline, pH 8.5. […] Behavioral testing. Mice were singly housed before testing. Each mouse was assigned a random number, so researchers were blinded to genotype and treatment information. At about 14 months of age, apoE3-KI and apoE4-KI mice were randomly assigned to treatment groups: apoE3-KI vehicle (n=10, age 14.01±0.44 months), apoE3-KI low bumetanide (n=11, age 14.30±0.33 months), apoE3-KI high bumetanide (n=10, age 13.74±0.22 months), apoE4-KI vehicle (n=10, age 14.10±0.35), apoE4-KI low bumetanide (n=10, age 14.70±0.27 months), apoE4-KI high bumetanide (n=9, age 13.77±0.28 months). Treatment was administered daily by i.p. injection beginning 6 weeks before and continuing throughout the 14 days of testing in the Morris water maze (MWM); injections were given at the end of the light cycle and after the day's test. The MWM pool (diameter, 122 cm) contained opaque water (22-23° C.) with a platform 10 cm in diameter. The platform was submerged 1.5 cm during hidden platform sessions^20-23,32 and marked with black-and-white-striped mast (15 cm high) during cued training sessions. Mice were trained to locate the hidden platform (hidden days 1-5) and the cued platform (visible days 1-3) in two daily sessions (3.5 h apart), each consisting of two 60-s trials (hidden and cued training) with a 15-min intertrial interval. Distal visual cues on the walls of the behavioral testing room remained constant throughout the test. Visible trials took place after training and memory probes and were 60 seconds long with a cued visible platform. The platform location remained constant in the hidden platform sessions but was changed for each cued (visible) platform session. Entry points were changed semirandomly between trials. At 24, 72, and 120 hours after the last hidden platform training, a 60-s probe trial (platform removed) was done. The entry point for the probe trial was in the southwest quadrant, and the target quadrant was the northeast quadrant. Performance was monitored with an Etho Vision video-tracking system (Noldus Information Technology). For the probe trials, the following analyses were performed (1) the percent time spent in the target quadrant versus average time spent in the three other quadrants, (2) the number of crossings over the position of the target platform versus the average number of crossings over the equivalent positions in the three other quadrants and (3) the distance to platform over the first 10 seconds. Statistical analyses. Behavior metrics are expressed as mean±SEM. All values for n are the numbers of mice or biological replicates. The distribution of data was assessed with the Shapiro-Wilk normality test; most of the data were normally distributed. […]

Where [1] appears, read: 16-month-old apoE4-KI mice, high dose 0.2 mg/kg daily i.p. 8 weeks.
Where [2] appears, read: apoE4-KI mice, high dose 0.2 mg/kg daily i.p. 8 weeks.

Molecules are shown by their SMILES.

Take `CCCCNc1cc(C(=O)O)cc(S(N)(=O)=O)c1Oc1ccccc1` [bumetanide, 3-(butylamino)-4-phenoxy-5-sulfamoylbenzoic acid]: under setting [1], the “long-term memory, 120-hour probe trial (time in target quadrant)” value is recorded as “significant preference for the target quadrant” and the “short-term memory, 24-hour probe trial (percent time in target quadrant)” value is “rescued the short-term memory deficit”. For the same compound, the “short-term memory, 24-hour probe trial (percent time in target quadrant)” value (16-month-old apoE4-KI mice, low dose 0.02 mg/kg daily i.p. 8 weeks) was “rescued the short-term memory deficit”. Also, the “learning curve (escape latency) in hidden platform trials” value (apoE4-KI mice, 0.02 or 0.2 mg/kg daily i.p. 8 weeks, vs vehicle, learning days 1-5) is given as “did not differ”. In addition, under setting [2], the “platform crossings in target quadrant versus other quadrants, 24-hour probe trial” value is on record as “significantly more platform crossings in the target quadrant” and the “platform crossings in target quadrant versus other quadrants, 120-hour probe trial” value is given as “significantly more platform crossings in the target quadrant”. The “short-term memory accuracy (platform crossings), 24-hour probe trial” value (apoE4-KI mice, low dose 0.02 mg/kg daily i.p. 8 weeks) was “trend toward significant improvement”.
